Measurements as given in US7709454B2, “Methods and compositions for inhibiting tumorigenesis” (New York University, priority 1997, dated 2010).
Where two headings read alike, the source gives them in different places.

How the values were obtained:
[1] = system: Various human tumor cell lines; settings: cited from earlier work
[2] = system: Athymic mice/colon (DLD-1), H-Ras and K-Ras Fibroblast tumors; settings: 10, 50 mg/kg/d; cited from earlier work
[3] = system: Nude mice/colon (DLD-1, HCT 116); settings: 2, 5, 10, 40 mg/kg/d; cited from earlier work
Pancreas (MIA PaCa-2) = settings: cited from earlier work
NIH3T3 = settings: 2, 5, 10, 40 mg/kg/d; cited from earlier work
Nude mice/colon (DLD-1) = settings: 40 mg/kg/d; cited from earlier work
Nude mice/lung (A549) = settings: 40 mg/kg/d; cited from earlier work
Nude mice/lung (HTB177) = settings: 40 mg/kg/d; cited from earlier work
Pancreas (AsPC-1) = settings: 40 mg/kg/d; cited from earlier work
Pancreas (HPAF-11) = settings: 40 mg/kg/d; cited from earlier work
Pancreas (Hs 700T) = settings: 40 mg/kg/d; cited from earlier work
Colon (HCT116) = settings: 40 mg/kg/d; cited from earlier work
Prostate (DU-145) = settings: 40 mg/kg/d; cited from earlier work
Urinary bladder (EJ) = settings: 40 mg/kg/d; cited from earlier work
[4] = system: Wap-H-RAS transgenic Mice/mammary, salivary tumors; settings: 2, 5, 10, 40 mg/kg/d; cited from earlier work
[5] = system: human melanoma primary cultures and cell lines; assay: BrdU incorporation in melanoma primary cultures and cell lines; assay type: cell-based; settings: 48 h; all four melanoma cell lines tested and Me-3
Protocol: Human foreskin melanocytes (Promocell) were grown in serum-free M2 medium (Promocell). WM-115, SK-MEL-2, SK-MEL-5, MeWo and COS7 cell lines (ATCC) were grown as specified. Tumors were chopped, incubated in E-MEM (Sigma) containing collagenase A (300 U/ml, Worthington) and hyaluronidase (100 U/ml, Sigma), mechanically dissociated and plated in E-MEM with 10% FBS, 1 mM sodium pyruvate (GIBCO) and 1 ng/ml EGF (GIBCO). […] All melanoma samples and BCC were obtained following approved protocols.
(§1) Commercial N-SHH (R&D Systems) was used at 100 nM. 5E1 anti-SHH blocking antibody (Hybridoma Bank, University of Iowa) was used at 10 μg/ml. Forskolin (FK) and 1,9-dideoxyforskolin (ddFK; Sigma) were used at 50 μM. […] MEK-1 (U0126; Promega), EGFR (AG1478; Biosource) and AKT (SH6; Alexis corporation) inhibitors were used at 1, 10, and 40 μM, respectively, dissolved in DMSO. Drug treatments were for 48 h in 2.5% serum. BrdU (Sigma) was pulsed at 4 μg/ml for 2 h before fixation followed by immunodetection with anti-BrdU antibodies (BD Biosciences). The number of viable cells was assessed by Trypan blue exclusion (Promega).

[6] = system: GLI1, PTCH1, BMI1, FOXM1, MITFM expression; assay: qPCR gene expression in melanoma cultures; assay type: cell-based, human; settings: 4 h after inhibitor; all cultures
Protocol: Real-time quantitative PCR amplifications with different primers (Suppl. Materials) were carried out at 60° C. on an Opticon machine (MJ Research) using iQ™ SYBR Green supermix (Biorad) and values calculated using the standard curve method.
as §1

[7] = system: GLI1-transfected WM-115, SK-MEL-2 and SK-MEL-5; assay: GLI1-transfection enhanced BrdU incorporation, treatment with inhibitors; assay type: cell-based, human; settings: 48 h treatment
Protocol: as §1

[8] = system: frog GLI1, frog Gli2, human GLI3 proteins; assay: localization of Myc-tagged GLI proteins in transfected COS7 cells; assay type: cell-based
Protocol: (§2) Cells were transfected (3 μg/p35 plate) with myc-tagged full-length CMV expression vectors for human GLI1 (Lee, J., Platt, K. A., Censullo, P. & Ruiz i Altaba, A. Gli1 is a target of Sonic hedgehog that induces ventral neural tube development. Development 124, 2537-2552 (1997)), HRAS-V12 (kindly provided by Dr. A. Pellicer, NYU) and LacZ with FUGENE (Roche). For selection, SK-MEL-2 and MeWo cells were transfected (4 μg/p60 plate) with PGK-neo and CMV-eGFP alone or in a 1/1/8 ratio with HRAS-12G, GLI3C′ΔClaI (Ruiz i Altaba 1999) or (frog) fGli2C′Δ (Ruiz i Altaba 1999), or in a 1/1/4/4 ratio with HRAS-12G/GLI3C′ΔClaI or HRAS-12G/fGli2C′Δ. After Geneticin (400 μg/ml, Gibco) selection for 20 days, colonies were stained with 0.5% crystal violet. Colony size was measured in duplicate dishes in three independent experiments. For subcellular localization, pCS2-Myc frog Gli2, […], human GLI3 and human GLI3C′ΔCla1 (Ruiz i Altaba, 1999) were transfected into COS-7 (ATCC) cells with our without HRAS (V12).

Frog Gli2 = assay: localization of myc-tagged GLI proteins in transfected COS-7 cells; assay type: cell-based; settings: Gli2+RAS*+inhibitor, 1 hr
Protocol: as §2

[9] = system: Human GLI3Rep (GLI3C′ΔCla1); assay: as above; assay type: cell-based; settings: GLI3Rep+RAS*+inhibitor, 1 hr
Protocol: as §2

Me-3, SK-Mel2 and WM-115 = assay: BrdU incorporation after MEK1 or AKT inhibitors (Example 2); assay type: cell-based, human; settings: 48 h
Protocol: WM-115, SK-MEL-2 and COS7 cell lines (ATCC) were grown according to the specifications of the provider. The primary Me-3 melanoma (Stecca, B. et al. Melanocyte proliferation and melanoma growth, recurrence and metastasis require sustained SONIC HEDGEHOG-GLI signaling. Submitted. (2006)) was grown in E-MEM with 10% FBS (Hyclone), 1 mM sodium pyruvate (GIBCO) and 1 ng/ml EGF (GIBCO). Proliferating human melanocytes from foreskin (Promocell) were grown in M2 media (Promocell). Melanomas from ±6 month-old Tyr→NRAS^Q61K; Ink4a^−/− mice on a light coat color Dct^−/− background^13 were collected from the skin and lymph nodes. Tumors were dissociated and grown in E-MEM with 10% FBS, 1 mM sodium pyruvate (GIBCO) and 1 ng/ml EGF (GIBCO). Mouse embryonic fibroblasts (MEFs) were prepared from E14.5 Swiss Webster mouse embryos and grown in DMEM with 10% FBS.
Forskolin (FK) and 1,9-dideoxyforskolin (ddFK; Sigma) were used at 50 μM. MEK-1 (U0126; Promega), and AKT (SH6; Alexis corporation) inhibitors were used at 1 and 40 μM, respectively, dissolved in DMSO. U0126 and SH6 were used for 1 h, 48 h post-transfection. Leptomycin B (LMB; Sigma) was used at 5 nM for 6 h, 48 h post-transfection. BrdU (Sigma) was pulsed at 4 μg/ml for 2 h before fixation followed by immunodetection with anti-BrdU antibodies (BD Biosciences). The number of viable cells was assessed by Trypan blue exclusion (Promega). […]

SK-Mel2 cells = assay: Propidium iodide FACS analyses; assay type: cell-based, human; settings: 24 h, compared to DMSO-treated cells
GLI1 and PTCH1 mRNA = assay: qPCR of GLI1 and PTCH1 mRNA after MEK-1 or AKT inhibitors; assay type: cell-based, human; settings: 4 h after treatment
Protocol: Real-time quantitative PCR amplifications with different primers were carried out at 60° C. on an Opticon machine (MJ Research) using iQTM SYBR Green supermix (Biorad) and values calculated using the standard curve method. Human primer sequences were 5'→3': […] NO: 5) and […] NO: 6); […] NO: 11) and […] NO: 41) and NRAS-R: […] NO: 44); […] NO: 33) and […] NO: 34). For mice: […] NO: 45) and […] NO: 46); Sufu-[…] NO: 47) and Sufu-[…] NO: 48); […] NO: 49) and […] NO: 50); Tyrosinase-[…] NO: 51) and Tyrosinase-[…] NO: 53) and […] NO: 54); […] NO: 55) and […] NO: 56). […] Promega), and AKT (SH6; […] […] Control siRNA: […] […] Proc. Natl. Acad. Sci. USA.

GLI1, GLI3, GLI3R = assay: localization of transfected GLI proteins in SK-Mel2 cells; assay type: cell-based, human
Protocol: (§3) Forskolin (FK) and 1,9-dideoxyforskolin (ddFK; Sigma) were used at 50 μM. MEK-1 (U0126; Promega), and AKT (SH6; Alexis corporation) inhibitors were used at 1 and 40 μM, respectively, dissolved in DMSO. U0126 and SH6 were used for 1 h, 48 h post-transfection. Leptomycin B (LMB; Sigma) was used at 5 nM for 6 h, 48 h post-transfection. BrdU (Sigma) was pulsed at 4 μg/ml for 2 h before fixation followed by immunodetection with anti-BrdU antibodies (BD Biosciences). The number of viable cells was assessed by Trypan blue exclusion (Promega). […] (SEQ ID NO: 57) (target-validated from Ambion). […] SEQ ID NO: 58) (Sanchez, P. et al. Inhibition of prostate cancer proliferation by interference with SONIC HEDGEHOG-GLI1 signaling. Proc. Natl. Acad. Sci. USA. 101, 12561-12566 (2004)). siRNA transfections (0.2 μM) were performed with Oligofectamine (Invitrogen) for 48 h.
Cells were transfected (3 μg/p35 plate) with myc-tagged full-length CMV expression vectors with FUGENE (Roche). Transfections were at equimolar amounts unless otherwise specified with combinations of pCS2-Myc-tagged human GLI1, GLI3, GLI3R (GLI3C′ΔClaI), frog Gli2R (Gli2C′) (Ruiz i Altaba, A. Gli proteins encode context-dependent positive and negative functions: implications for development and disease. Development 126, 3205-3216 (1999), pCMV-HA-tagged GLI1 (ref. 20), HRAS^V12G (from A. Pellicer), NRAS^Q61K (Ackermann, J. et al. Metastasizing melanoma formation caused by expression of activated N-RasQ61K on an INK4a-deficient background. Cancer Res. 65, 4005-4011 (2005)), activated (myristoylated) myc-tagged AKT1 (Upstate), activated MEK1 (p45MAPKK^S222D; from J. Pouyssegur), Myc-tagged SUFUH (Kogerman, P. et al. Mammalian suppressor-of-fused modulates nuclear-cytoplasmic shuttling of Gli-1. Nat Cell Biol. 1, 312-319 (1999)), and pCMV-eGFP or pCMV-lacZ.

GLI1 = assay: localization of transfected GLI1 in COS7 cells (Example 2); assay type: cell-based, monkey; settings: inhibitors for 1 h
Protocol: as §3
Cells were transfected (3 μg/p35 plate) with myc-tagged full-length CMV expression vectors with FUGENE (Roche). […]

all forms of MEK = settings: cited from earlier work

Q: For `O=C(Cc1ccncc1)N1CCC(=C2c3ccc(Cl)cc3CCc3cccnc32)CC1` [SCH44342], which IC50 [1] is on record?
A: Its IC50 is 1000 nM.

Q: Which “GROWTH INHIBITION” value [2] does the source give for `O=C(Cc1cc[n+]([O-])cc1)N1CCN(C2c3ccc(Cl)cc3CCc3cc(Br)cnc32)CC1` (stereo not shown) [SCH59228] here?
A: The value was >90%.

Q: Which results are given for `NC(=O)N1CCC(CC(=O)N2CCC([C@H]3c4ncc(Br)cc4CCc4cc(Cl)cc(Br)c43)CC2)CC1` [SCH66336]?
A: GROWTH INHIBITION [3]: 76%; GROWTH INHIBITION (Pancreas (MIA PaCa-2); 40 mg/kg/d, MIA PaCa-2): 78%; GROWTH INHIBITION (Pancreas (MIA PaCa-2); 2, 5, 10, 40 mg/kg/d): 75%; GROWTH INHIBITION (NIH3T3): 100%; GROWTH INHIBITION (Nude mice/colon (DLD-1)): 76%; GROWTH INHIBITION (Nude mice/lung (A549)): 70%; GROWTH INHIBITION (Nude mice/lung (HTB177)): 83%; GROWTH INHIBITION (Pancreas (AsPC-1)): 72%; GROWTH INHIBITION (Pancreas (HPAF-11)): 67%; GROWTH INHIBITION (Pancreas (Hs 700T)): 67%; GROWTH INHIBITION (Colon (HCT116)): 84%; GROWTH INHIBITION (Prostate (DU-145)): 86%; GROWTH INHIBITION (Urinary bladder (EJ)): 100%; GROWTH INHIBITION [4]: 67%-86%

Q: Which BrdU incorporation [5] does the source give for `N#CC(=C(N)Sc1ccccc1N)C(C#N)=C(N)Sc1ccccc1N` [U0126, 1,4-diamino-2,3-dicyano-1,4-bis[2-aminophenylthio]butadiene] here?
A: The BrdU incorporation was “decreased BrdU incorporation”.

Q: And the “GLI1 and PTCH1 levels” value [6]?
A: The value was “reduction of GLI1 and PTCH1 levels”.

Q: What about the “effect on GLI1-enhanced proliferation” value [7] of the same compound?
A: Its value is “reversed”.

Q: What about the “localization of transfected GLI proteins without co-transfected RAS” value [8] of the same compound?
A: Its value is “did not change the localization”.

Q: And the “effect on RAS-enhanced nuclear accumulation of GLI proteins” value ([8]; treatment for 1 h, 24 h after transfection)?
A: Its value is “reversed”.

Q: What about the “cells with cytoplasmic (c) localization” value (Frog Gli2) of the same compound?
A: The value was 30%.

Q: And the “cells with cytoplasmic (c) localization” value [9]?
A: The value was 1%.

Q: And the BrdU incorporation (Me-3, SK-Mel2 and WM-115)?
A: The BrdU incorporation was “decreased BrdU incorporation”.

Q: And the “decrease in the number of dividing cells (S/G2/M)” value (SK-Mel2 cells)?
A: The value was 30%.

Q: What about the “GLI1 and PTCH1 mRNA levels” value (GLI1 and PTCH1 mRNA) of the same compound?
A: Its value is “rapid reduction of GLI1 and PTCH1 mRNA levels”.

Q: And the “localization of the constitutively nuclear GLI3R” value (GLI1, GLI3, GLI3R)?
A: Its value is “no effect”.

Q: What about the “localization of GLI1” value (GLI1, GLI3, GLI3R; inhibitors for 1 h) of the same compound?
A: The value was “increasing cytoplasmic localization of GLI1”.

Q: And the “localization of GLI3” value (GLI1, GLI3, GLI3R; inhibitors for 1 h)?
A: The value was “unaffected”.

Q: And the “effect on oncogenic RAS-induced nuclear accumulation of GLI1” value (GLI1)?
A: Its value is “reversed”.

Q: And the “higher affinity than PD 098059” value (all forms of MEK)?
A: The value was 44- to 357 fold.
